Results from patent publication US20050176727A1, “Oximes and hydrazones that are useful in treating sexual dysfunction” (priority 2004, published 2005).
Structures can show the parent of a compound that is named as a salt.

Key:
[1] = tested on: penile erection in Wistar rats; assay: Rat penile erection model; format: in vivo; details: reference compound
Protocol: Wistar rats were used as a primary animal model to study penile erection in vivo. All experiments were carried out between 9:00 AM and 3:00 PM in a diffusely illuminated testing room with a red light. Animals (n=8-30) were weighed and allowed to adapt to the testing room for 60 minutes before the beginning of experiments. Rats were placed individually in a transparent cage (20×30×30 cm) after drug injection.

melting point [°C] | Compound | most efficacious dose [1] [µmol/kg]
127 to 128 | N#CCON=C(CCN1CCN(c2ccccn2)CC1)c1ccccc1 (as salt: maleate) [Example 29, ({[1-phenyl-3-(4-pyridin-2-ylpiperazin-1-yl)propylidene]amino}oxy)acetonitrile] | 
154 to 155 | CCCCON=C(CCN1CCN(c2ccccn2)CC1)c1ccccc1 (as salt: maleate) [Example 30, 1-phenyl-3-(4-pyridin-2-ylpiperazin-1-yl)propan-1-one O-butyloxime] | 
156 to 157 | CC(C)O/N=C(\CCN1CCN(c2ccccn2)CC1)c1ccccc1 (as salt: maleate) [Example 31, (1E)-1-phenyl-3-(4-pyridin-2-ylpiperazin-1-yl)propan-1-one O-isopropyloxime] | 
152 to 153 | CON=C(c1ccc(Cl)cc1)C(C)CN1CCN(c2ccccn2)CC1 (stereo not shown) (as salt: maleate) [Example 39, 1-(4-chlorophenyl)-2-methyl-3-(4-pyridin-2-ylpiperazin-1-yl)propan-1-one O-methyloxime] | 

Continued, compound first:

Compound | melting point [°C] | most efficacious dose [1] [µmol/kg]
ON=C(CCN1CCN(c2ccccn2)CC1)c1ccc(F)cc1 [Example 21, 1-(4-fluorophenyl)-3-(4-pyridin-2-ylpiperazin-1-yl)propan-1-one oxime] | 159 to 160 | 
O/N=C(\CCN1CCN(c2ccccn2)CC1)c1ccc(Cl)cc1 [Example 22, (1E)-1-(4-chlorophenyl)-3-(4-pyridin-2-ylpiperazin-1-yl)propan-1-one oxime] | 188 to 190 | 
CN1CCc2cccc3c2[C@H]1Cc1ccc(O)c(O)c1-3 [apomorphine, (6aR) 5,6,6a,7-tetrahydro-6-methyl-4H-dibenzo[de,g]quinoline-10,11-diol] |  | 0.1
